In US11834463B2, “High affinity macrocyclic FKB51-inhibitors for treatment of psychiatric disorders” (priority 2020, dated 2023):
Read-outs that look alike come from different tables or passages of the source.

What was measured:
FKBP12.6 = FKBP12.6 (Homo sapiens, UniProt P68106); test: competitive fluorescence polarization assay, binding to FKBP12.6
Protocol: (§1) All macrocyclic compounds were tested in a competitive fluorescence polarization assay for binding towards FKBP51 as well as the homologs FKBP12, FKBP12.6 and FKBP52 (Table 1).
(§2) Example 8: […] of the Macrocyclic FKBP51 Ligands by SPPS

FKBP51FK1 = biological target: T1, FKBP51FK1 (Homo sapiens, UniProt Q13451); test: biochemical
T1 sequence (Q13451 42-130 limits assumed): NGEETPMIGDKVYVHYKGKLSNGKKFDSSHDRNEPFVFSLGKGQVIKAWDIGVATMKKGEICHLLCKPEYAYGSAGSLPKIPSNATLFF
Protocol: as §1, §2

FKBP12 = FKBP12 (Homo sapiens, UniProt P62942); test: competitive fluorescence polarization assay, binding to FKBP12
Protocol: as §1, §2

[1] = Table 1, competitive Fluorescence Polarization Assay, read-out: Ki [nM] FKBP12.6
[2] = Ki [nM] FKBP51FK1, Table 1, competitive Fluorescence Polarization Assay
[3] = Table 1, competitive Fluorescence Polarization Assay, read-out: Ki [nM] FKBP12
[4] = affinity, same values as Table 2 FKBP51FK1

Chain of FKBP12 (P62942 whole entry): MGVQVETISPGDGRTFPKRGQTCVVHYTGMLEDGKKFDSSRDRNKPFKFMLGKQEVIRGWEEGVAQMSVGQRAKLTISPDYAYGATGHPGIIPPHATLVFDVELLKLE
Chain of FKBP12.6 (P68106 whole entry): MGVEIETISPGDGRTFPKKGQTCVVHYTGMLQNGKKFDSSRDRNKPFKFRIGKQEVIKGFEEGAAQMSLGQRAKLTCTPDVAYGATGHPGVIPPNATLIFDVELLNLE

Compound	Ki (FKBP12.6; [1]) [nM]	Ki (FKBP51FK1; [2]) [nM]	Ki (FKBP12; [3]) [nM]	other results
COc1ccc(CC[C@H]2OC(=O)[C@@H]3CCCCN3C(=O)[C@@H](C3CCCCC3)c3cc(OC)c(OC)c(c3)OCCCCCOc3cccc2c3)cc1OC [Compound 44]	65	43	88	
COc1ccc(CC[C@H]2OC(=O)[C@@H]3CCCCN3C(=O)[C@@H](C3CCCCC3)NC(=O)C3(CCC3)NC(=O)COc3cccc2c3)cc1OC [Compound 87, (2′R,5'S,12′R)-12′-cyclohexyl-2′-[2-(3,4-dimethoxyphenyl)ethyl]-3′, 19′-dioxa-10′, 13′, 16′-triazaspiro[cyclobutane-1,15′-tricyclo[18.3.1.0^5,10° ]tetracosane]-1′(24′),20′, 22′-triene-4′, 11′, 14′, 17′-tetrone]				Ki (FKBP12.6; Table 2, read-out: FKBP12.6 Ki): > 80000 nM; Ki (FKBP51FK1; [4]): 400 nM; Ki (FKBP12; Table 2, read-out: FKBP12 Ki): > 80000 nM
COc1ccc(CC[C@H]2OC(=O)[C@@H]3CCCCN3C(=O)[C@@H](C3CCCCC3)c3cc(OC)c(OC)c(c3)OCCOCC(=O)CCOc3cccc2c3)cc1OC [Compound 62]	57	23	39	
COc1ccc(CC[C@H]2OC(=O)[C@@H]3CCCCN3C(=O)[C@@H](C3CCCCC3)c3cc(OC)c(c(OC)c3)OCCCCOc3cccc2c3)cc1OC [Compound 39]	191	53	159	
COc1ccc(CC[C@H]2OC(=O)[C@@H]3CCCCN3C(=O)[C@@H](C3CCCCC3)NC(=O)CCNC(=O)COc3cccc2c3)cc1OC [Compound 93, (2R,5S,12R)-12-cyclohexyl-2-[2-(3,4-dimethoxyphenyl)ethyl]-3,20-dioxa-10,13,17-triazatricyclo[19.3.1.0^5,10]pentacosa-1(25),21,23-triene-4,11,14,18-tetrone]				Ki (FKBP12.6; Table 2, read-out: FKBP12.6 Ki): > 80000 nM; affinity (in words) (FKBP51FK1): reduced affinity; Ki (FKBP51FK1; FKBP51FK1 Ki [μM], Table 2, [a] standard error from three, [c] error from two independent measurements): 7400 nM; Ki (FKBP12; Table 2, read-out: FKBP12 Ki): > 80000 nM
COc1ccc(CC[C@H]2OC(=O)[C@@H]3CCCCN3C(=O)[C@@H](C3CCCCC3)c3cc(OC)c(OC)c(c3)OCCOCCCCOc3cccc2c3)cc1OC [Compound 45]	84	48	123	
COc1ccc(CC[C@H]2OC(=O)[C@@H]3CCCCN3C(=O)[C@@H](C3CCCCC3)NC(=O)CN(C)C(=O)COc3cccc2c3)cc1OC [Compound 89, (2R,5S,12R)-12-cyclohexyl-2-[2-(3,4-dimethoxyphenyl)ethyl]-16-methyl-3,19-dioxa-10,13,16-triazatricyclo[18.3.1.0^5,10]tetracosa-1(24),20,22-triene-4,11,14,17-tetrone]				Ki (FKBP12.6; Table 2, read-out: FKBP12.6 Ki): > 80000 nM; Ki (FKBP51FK1; [4]): 3100 nM; Ki (FKBP12; Table 2, read-out: FKBP12 Ki): > 80000 nM
COc1ccc(CC[C@H]2OC(=O)[C@@H]3CCCCN3C(=O)[C@@H](C3CCCCC3)c3cc(OC)c(OC)c(c3)OCC/C=C\COc3cccc2c3)cc1OC [36-(Z)]	96	77	118	
COc1ccc(CC[C@H]2OC(=O)[C@@H]3CCCCN3C(=O)[C@@H](C3CCCCC3)c3cc(OC)c(c(OC)c3)OCC/C=C\COc3cccc2c3)cc1OC [32-(Z)]	237	80	189	
COc1ccc(CCC2OC(=O)C3CCCCN3C(=O)C(C3CCCCC3)c3cc(OC)c(OC)c(c3)OC/C=C/COc3cccc2c3)cc1OC (stereo not shown) [35-(E)]				Ki (FKBP12.6; Table 1, unit μM printed in the cell, read-out: Ki FKBP12.6): > 100000 nM; Ki (FKBP51FK1; Ki FKBP51FK1, Table 1, unit μM printed in the cell): > 5000 nM; Ki (FKBP12; Table 1, unit μM printed in the cell, read-out: Ki FKBP12): > 100000 nM
COc1ccc(CC[C@H]2OC(=O)[C@@H]3CCCCN3C(=O)[C@@H](C3CCCCC3)c3cc(OC)c(OC)c(c3)OCCOc3cccc2c3)cc1OC [Compound 57]	78	47	308	
COc1ccc(CC[C@H]2OC(=O)[C@@H]3CCCCN3C(=O)[C@@H](C3CCCCC3)NC(=O)CNC(=O)COc3cccc2c3)cc1OC [Compound 83, (2R,5S,12R)-12-cyclohexyl-2-[2-(3,4-dimethoxyphenyl)ethyl]-3,19-dioxa-10,13,16-triazatricyclo[18.3.1.0^5,10]tetracosa-1(24),20,22-triene-4,11,14,17-tetrone]				Ki (FKBP12.6; Table 2, read-out: FKBP12.6 Ki): > 80000 nM; Ki (FKBP51FK1; [4]): 2300 nM; Ki (FKBP12; Table 2, read-out: FKBP12 Ki): > 80000 nM
COc1ccc(CC[C@H]2OC(=O)[C@@H]3CCCCN3C(=O)[C@@H](C3CCCCC3)c3cc(OC)c(c(OC)c3)OCCOCCCCOc3cccc2c3)cc1OC [Compound 41]	230	118	449	
COc1ccc(CC[C@H]2OC(=O)[C@@H]3CCCCN3C(=O)[C@@H](C3CCCCC3)c3cc(OC)c(c(OC)c3)OCC(O)C(O)COc3cccc2c3)cc1OC (mixture of isomers) [Compound 63]	83	11	97	
COc1ccc(CC[C@H]2OC(=O)[C@@H]3CCCCN3C(=O)[C@@H](C3CCCCC3)c3cc(OC)c(OC)c(c3)OCCCOC/C=C/COc3cccc2c3)cc1OC [38-(E)]	144	93	269	
COc1ccc(CC[C@H]2OC(=O)[C@@H]3CCCCN3C(=O)[C@@H](C3CCCCC3)NC(=O)[C@H](C)NC(=O)COc3cccc2c3)cc1OC [Compound 91, (2R,5S,12R,15S)-12-cyclohexyl-2-[2-(3,4-dimethoxyphenyl)ethyl]-15-methyl-3,19-dioxa-10,13,16-triazatricyclo[18.3.1.0^5,10]tetracosa-1(24),20,22-triene-4,11,14,17-tetrone]				Ki (FKBP12.6; Table 2, read-out: FKBP12.6 Ki): > 80000 nM; affinity (in words) (FKBP51FK1): bound more weakly; Ki (FKBP12; Table 2, read-out: FKBP12 Ki): > 80000 nM
COc1ccc(CC[C@H]2OC(=O)[C@@H]3CCCCN3C(=O)[C@@H](C3CCCCC3)c3cc(OC)c(OC)c(c3)OCCCOCCCCOc3cccc2c3)cc1OC [Compound 46]	116	80	449	
COc1ccc(CC[C@H]2OC(=O)[C@@H]3CCCCN3C(=O)[C@@H](C3CCCCC3)NC(=O)C3(CCCC3)NC(=O)COc3cccc2c3)cc1OC [Compound 88, (2′R,5'S,12′R)-12′-cyclohexyl-2′-[2-(3,4-dimethoxyphenyl)ethyl]-3′, 19′-dioxa-10′, 13′, 16′-triazaspiro[cyclopentane-1,15′-tricyclo[18.3.1.0^5,10]tetracosane]-1′(24′),20′, 22′-triene-4′, 11′, 14′, 17′-tetrone]				Ki (FKBP12.6; Table 2, read-out: FKBP12.6 Ki): > 80000 nM; Ki (FKBP51FK1; [4]): 1300 nM; Ki (FKBP12; Table 2, read-out: FKBP12 Ki): > 80000 nM
COc1ccc(CC[C@H]2OC(=O)[C@@H]3CCCCN3C(=O)[C@@H](C3CCCCC3)c3cc(OC)c(c(OC)c3)OC/C=C\COc3cccc2c3)cc1OC [31-(Z)]	328	70	261	
COc1ccc(CC[C@H]2OC(=O)[C@@H]3CCCCN3C(=O)[C@@H](C3CCCCC3)c3cc(OC)c(OC)c(c3)OCCOC/C=C\COc3cccc2c3)cc1OC [37-(Z)]	190	113	270	
COc1ccc(CC[C@H]2OC(=O)[C@@H]3CCCCN3C(=O)[C@@H](C3CCCCC3)c3cc(OC)c(OC)c(c3)OCCCCOc3cccc2c3)cc1OC [Compound 43]	62	30	92	
COc1ccc(CC[C@H]2OC(=O)[C@@H]3CCCCN3C(=O)[C@@H](C3CCCCC3)c3cc(OC)c(OC)c(c3)OCCC(=O)CCOc3cccc2c3)cc1OC [Compound 61a]	22	8	38	
COc1ccc(CC[C@H]2OC(=O)[C@@H]3CCCCN3C(=O)[C@@H](C3CCCCC3)NC(=O)[C@@H]3CCC[C@H]3NC(=O)COc3cccc2c3)cc1OC [Compound 94, (2R,5S,12R,15R,19R)-12-cyclohexyl-2-[2-(3,4-dimethoxyphenyl)ethyl]-3,23-dioxa-10,13,20-triazatetracyclo[22.3.1.0^5,10.0^15,19]octacosa-1(28),24,26-triene-4,11,14,21-tetrone]				Ki (FKBP12.6; Table 2, read-out: FKBP12.6 Ki): > 80000 nM; Ki (FKBP51FK1; [4]): 1800 nM; Ki (FKBP12; Table 2, read-out: FKBP12 Ki): > 80000 nM
COc1ccc(CCC2OC(=O)C3CCCCN3C(=O)C(C3CCCCC3)c3cc(OC)c(OC)c(c3)OC/C=C\COc3cccc2c3)cc1OC (stereo not shown) [35-(Z)]	192	93	173	
COc1ccc(CC[C@H]2OC(=O)[C@@H]3CCCCN3C(=O)[C@@H](C3CCCCC3)CC(O)C(O)COCCOc3cccc2c3)cc1OC (stereo partly drawn) [Compound 82, (2R,5S,12R)-12-cyclohexyl-2-[2-(3,4-dimethoxyphenyl)ethyl]-14,15-dihydroxy-3,17,20-trioxa-10-azatricyclo[19.3.1.0^5,10]pentacosa-1(25),21,23-triene-4,11-dione]				binding to FKBP12.6 (in words) (FKBP12.6): did not bind; Ki (FKBP51FK1; Ki, bound to FKBP51, text b114): 1200 nM; binding to FKBP12 (in words) (FKBP12): did not bind
COc1ccc(CC[C@H]2OC(=O)[C@@H]3CCCCN3C(=O)[C@@H](C3CCCCC3)c3cc(OC)c(OC)c(c3)OCCCOc3cccc2c3)cc1OC [Compound 58]	87	54	401	
COc1ccc(CC[C@H]2OC(=O)[C@@H]3CCCCN3C(=O)[C@@H](C3CCCCC3)c3cc(OC)c(OC)c(c3)OCCOC/C=C/COc3cccc2c3)cc1OC [37-(E)]	74	46	182	
COc1ccc(CCC2OC(=O)C3CCCCN3C(=O)C(C3CCCCC3)c3cc(OC)c(OC)c(c3)OCC(O)C(O)COc3cccc2c3)cc1OC (single isomer, unassigned) [Compound 64a]	10	4	23	
